# Experiments:
# [1] = biological target: T1, stearoyl-CoA desaturase (SCD1) (Mus musculus, UniProt P13516); assay: Stearoyl-CoA desaturase inhibition, mouse liver microsomes (release of 3H2O from [9,10-3H]stearoyl-CoA); assay type: biochemical; details: 15 min incubation, 25° C., read-out: Microsomal IC50
# T1 construct: Male ICR outbread mice, on a high-carbohydrate, low fat diet; from tissue; host or cells: liver microsomes of male ICR mice on a high-carbohydrate, low fat diet
# T1 sequence (P13516 1-355): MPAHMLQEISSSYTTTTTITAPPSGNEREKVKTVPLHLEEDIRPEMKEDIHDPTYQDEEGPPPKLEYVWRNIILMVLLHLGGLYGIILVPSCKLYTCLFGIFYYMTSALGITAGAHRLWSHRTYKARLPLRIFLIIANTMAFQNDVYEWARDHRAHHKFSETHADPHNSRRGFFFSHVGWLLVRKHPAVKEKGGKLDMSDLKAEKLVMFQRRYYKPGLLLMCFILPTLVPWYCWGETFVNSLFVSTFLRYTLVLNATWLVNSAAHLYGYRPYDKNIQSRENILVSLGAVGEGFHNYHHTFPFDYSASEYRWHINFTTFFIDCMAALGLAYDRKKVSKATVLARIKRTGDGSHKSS
# Source text: The identification of compounds of the invention as SCD inhibitors was readily accomplished using the SCD enzyme and microsomal assay procedure described in Shanklin J. and Summerville C., Proc. Natl. Acad. Sci. USA (1991), Vol. 88, pp. 2510-2514.
# Measuring Stearoyl-CoA Desaturase Inhibition Activity of a Test Compound Using Mouse Liver Microsomes
# The identification of compounds of the invention as SCD inhibitors was readily accomplished using the SCD microsomal assay procedure described in Shanklin J. and Summerville C., Proc. Natl. Acad. Sci. USA (1991), Vol. 88, pp. 2510-2514.
# Male ICR outbread mice, on a high-carbohydrate, low fat diet, under light halothane (15% in mineral oil) anesthesia are sacrificed by exsanguination during periods of high enzyme activity. Livers are immediately rinsed with cold 0.9% NaCl solution, weighed and minced with scissors. All procedures are performed at 4° C. unless specified otherwise. Livers are homogenized in a solution (1/3 w/v) containing 0.25 M sucrose, 62 mM potassium phosphate buffer (pH 7.0), 0.15 M KCl, 15 mM N-acetyleysteine, 5 mM MgCl2, and 0.1 mM EDTA using 4 strokes of a Potter-Elvehjem tissue homogenizer. The homogenate is centrifuged at 10,400×g for 20 min to eliminate mitochondria and cellular debris. The supernatant is filtered through a 3-layer cheesecloth and centrifuged at 105,000×g for 60 min. The microsomal pellet is gently resuspended in the same homogenization solution with a small glass/teflon homogenizer and stored at −70° C. The absence of mitochondrial contamination is enzymatically assessed. The protein concentration is measured using bovine serum albumin as the standard.
# Desaturase activity is measured as the release of ^3H2O from [9,10-^3H]stearoyl-CoA. Reactions per assay point conditions are as follows: 2 μL 1.5 mM stearoyl-CoA, 0.25 μL 1 mCi/mL ^3H stearoyl CoA, 10 μL 20 mM NADH, 36.75 μL 0.1 M PK buffer (K2HPO4/NaH2PO4, pH 7.2). The test compound or control solution is added in a 1 μL volume. Reactions are started by adding 50 μL of microsomes (1.25 mg/mL). The plates are mixed and after 15 min incubation on a heating block (25° C.), the reactions are stopped by the addition of 10 μL 60% PCA. An aliquot of 100 μL is then transferred to a filter plate pretreated with charcoal and the plate centrifuged at 4000 rpm for 1 minute. The flow through containing the ^3H2O released by the SCD1 desaturation reaction is added to scintillation fluid and the radioactivity measured in a Packard TopCount. The data is analysed to identify the IC50 for test compounds and reference compounds.
# The activity was defined in terms of % SCD enzyme activity remaining at the desired concentration of the test compound or as the IC50 concentration. The IC50 (affinity) of the example compounds toward the stearoyl-CoA desaturase is comprised between around […] and 0.0001 μM or between around 5 μM and 0.0001 μM or between around 1 μM and 0.0001 μM.
SMILES,IC50 [1],melting point
"Cc1nc(N2C[C@@H](C)N(Cc3ccc(F)cc3)C2=O)sc1C(=O)NCc1cccnc1 [Example 2.7, (R)-2-(3-(4-Fluorobenzyl)-4-methyl-2-oxoimidazolidin-1-yl)-4-methyl-N-(pyridin-3-ylmethyl)thiazole-5-carboxamide]",36 nM,135 to 136 °C
"Cc1nc(N2CCN(Cc3cccc(C(F)(F)F)c3)C2=O)sc1-c1cc[nH]n1 [Example 17.2, 1-(4-methyl-5-(1H-pyrazol-3-yl)thiazol-2-yl)-3-(3-(trifluoromethyl)benzyl)imidazolidin-2-one]",186 nM,209 to 214 °C
"Cc1nc(N2CCN(Cc3ccc(S(C)(=O)=O)cc3)C2=O)sc1C(N)=O [Example 20-133, 4-methyl-2-(3-(4-(methylsulfonyl)benzyl)-2-oxoimidazolidin-1-yl)thiazole-5-carboxamide]",527 nM,–

# Source: patent US8318949B2, “Organic compounds” (Novartis AG, priority 2008, dated 2012)
